Experiments:
U266 cells = test: Western blot time course of apoptotic proteins in U266 cells; assay type: cell-based, human
Protocol: Protein analyses were performed by Western blot in several sets of assays: expression pattern of CBs-receptors in MM cell lines and primary cells, and time course after treatment with cannabinoids in MM cell lines. Time-course assays were performed at 0, 2, 6, 18 and 24 hours. Anyway, obtaining cell lysates was conducted according to a protocol adapted to phosphorylation-dependent signaling, described by Gilbert et al. (2002). Briefly, 10e7 cells per condition were harvested at indicated times, washed with iced-cold PBS and lysate in isotonic lysis buffer 30 min keeping on ice. Isotonic lysis buffer contained 2% ASB-14 (CalbioChem, San Diego, Calif., USA),1% Nonidet P-40 (Ipegal®), 137 mM NaCl, 20mM Tris-HCl pH 7.5 at 4° C. (all from Sigma-Aldrich), 2 mM Na3VO4, 20 mM NaF (New England BioLabs Inc., Ipswich, Mass., USA), 2 mM DTT (AppliChem, Darmstadt, Germany), protease inhibitor cocktail (Roche Diagnostics GmbH, Mannheim, Germany), and 10 ul Nuclease Mix (Amersham GE Healthcare, Uppsala, Sweden). After lysis, samples were centrifuged at 13,000×g for 5 min at 4° C., and supernatants collected. Protein concentration in samples was determined by Pierce® Microplate BCA Protein Assay kit-Reducing Agent Compatible (Thermo Fisher Scientific). Before loading the samples in the gel, they were diluted in loading sample buffer (0.125 M Tris-HCl pH 6.8, 4% SDS, 20% glycerol, 0.02% Bromophenol Blue, 200 mM DTT) and the mixture was heated at 70° C. for 5 min in a thermoblock (LabNet International, N.J., USA).
Samples (15-25 ug/lane) were subjected to SDS/PAGE in pre-cast polyacrylamide gels AnykD (Bio-Rad Laboratories, Hercules, CA, USA) under reducing and denaturing conditions. Electrophoretic run was performed at a constant current of 15 mA per gel in a Mini-Protean® Tetra Cell (Bio-Rad Laboratories). Once proteins were separated by electrophoresis, were transferred onto PVDF membranes using Trans-Blot® Turbo™ System (Bio-Rad Laboratories). Electrotransference was conducted at constant amperage of 1.2 mA and at up to 25 V of voltage. The blotted membranes were then blocked with 2% bovine serum albumin [(BSA), Santa Cruz Biotechnology] in Tween-Tris buffer saline (TTBS) for 30 min with gentle agitation, and incubated overnight at 4° C. with corresponding primary antibody in TTBS. After twice washing with TTBS, membranes were incubated for 1-2 h at room temperature with suitable conjugated-HRP secondary antibody, and subjected to chemiluminescence detection using Western Blotting Luminol Reagent (Santa Cruz Biotechnology). […]
The antiproliferative effect of cannabinoids is mediated by apoptotic mechanisms. […] Next, we evaluated Casp-3 activation using an antibody that recognizes the active forms of Casp-3, this is, the 17 kDa- and 12 kDa-cleaved forms. […]

HL60 cells = test: Mitochondrial membrane potential in HL60 cells (TMRE, flow cytometry); assay type: cell-based, human
Protocol: Mitochondrial membrane potential and superoxide detection Cells (10e6 cells per assay) were treated with a concentration of WIN-55 for 15, 30, 45 and 60 min at 37° C. Fluorochromes 10 μM TMRM [(tetramethylrhodamine-ethyl-ester-perchlorate), Santa Cruz Biotechnology Inc.] to detect membrane potential, or 5 μM MitoSOX [Molecular Probes (Invitrogen)] to detect mitochondrial superoxide, were added for the last 15 min of treatment. CCCP (uncoupler of oxidative phosphorylation) or H2O2 (oxidant agent) was used as a positive control of the techniques respectively (Labbe et al., 2008). The fluorescence detection of TMRM was measured for flow citometry. Fluorescent intensity was quantified and analyzed using Infinicyt™ Software (Cytognos, Salamanca, Spain).
To delve into the processes that participate in cannabinoid-induced apoptosis, we evaluated the potential of mitochondrial membrane potential in HL60 cells after treatment with WIN-55, at indicated times, using TMRE assay by flow citometry. We observed that cannabinoids induced a drop of Δψm in HL60 cells (FIG. 20a). The loss of potential started as early as 15 min after exposure to the cannabinoid, and continued decreasing over time. Also the ROS increase by MitoSOX assay was observed, specially in HL60 cells after exposure to WIN-55 (FIG. 20b).

Compound: CS(=O)(=O)O.Cc1c(C(=O)c2cccc3ccccc23)c2cccc3c2n1[C@H](CN1CCOCC1)CO3 [WIN-55, (R)-(+)-[2,3-dihydro-5-methyl-3-(4-morpholinylmethyl)-pyrrolo-[1,2,3]-1,4-benzoxazin-6-yl]-1-naphthalenylmethanone mesylate]
- time after exposure at which the 89 kDa PARP fragment became detectable (U266 cells; U266): 2 h
- expression of the two active-cleaved forms of Casp-3 (17 kDa and 12 kDa) (U266 cells; U266, time course): increased over time
- 89 kDa fragment of PARP (U266 cells; U266, time course 0-24 h): increase
- full-length PARP (U266 cells; U266, time course 0-24 h): decrease
- time after exposure at which the loss of potential started (HL60 cells; HL60): 15 min
- mitochondrial membrane potential (Δψm) (HL60 cells; HL60, TMRE, flow cytometry): drop of Δψm

Source: US20180353461A1, “USE OF CANNABINOIDS AS CERAMIDE-GENERATING ANTICANCER AGENTS IN TUMORS OF THE HEMATOPOIETIC AND LYMPHOID TISSUES” (priority 2014, published 2018)
